From patent US20240002425A1, “NOVEL AMINOALKYL GLUCOSAMINIDE 4-PHOSPHATE DERIVATIVE” (DAIICHI SANKYO COMPANY, LIMITED, priority 2020, published 2024)

Test system: binding between RBD and hACE2
Settings: in vivo

CCCCCCCCCCC[C@H](CC(=O)N[C@@H](CO[C@@H]1O[C@H](CO[C@]2(C(=O)O)C[C@@H](O)[C@@H](O)[C@@H]([C@H](O)CO)O2)[C@@H](OP(=O)(O)O)[C@H](OC(=O)C[C@@H](CCCCCCCCCCC)OC(=O)CCCCCCCCC)[C@H]1NC(=O)C[C@@H](CCCCCCCCCCC)OC(=O)CCCCCCCCC)CC(=O)O)OC(=O)CCCCCCCCC [Example 2(2e), Ammonium (3R)-3-{[(3R)-3-(decanoyloxy)tetradecanoyl]amino}-4-({3-O-[(3R)-3-(decanoyloxy)tetradecanoyl]-2-{[(3R)-3-(decanoyloxy)tetradecanoyl]amino}-2-deoxy-6-O-(3-deoxy-α-D-manno-oct-2-ulopyranonosyl)-4-O-phosphono-β-D-glucopyranosyl}oxy)butanoate]
inhibition of binding between RBD and hACE2 by nasal wash: inhibited the binding between RBD and hACE2
